# Reference: ChEMBL document CHEMBL3286225, “Novel carboline derivatives as potent antifungal lead compounds: design, synthesis, and biological evaluation” (ACS Med Chem Lett, 2014)
# Tests used:
# Format in all cases: functional
# [1] = tested on: Candida albicans; assay: Antifungal activity against fluconazole-sensitive Candida albicans SC5314 after 24 hrs by serial dilution method; conditions: SC5314, 24 h
# [2] = tested on: Trichophyton rubrum; assay: Antifungal activity against Trichophyton rubrum Cmccftla after 7 days by serial dilution method; conditions: 168 h
# [3] = tested on: Cryptococcus neoformans; assay: Antifungal activity against Cryptococcus neoformans 32609 after 72 hrs by serial dilution method; conditions: Cryptococcus neoformans, 32609, 72 h
# [4] = tested on: Aspergillus fumigatus; assay: Antifungal activity against Aspergillus fumigatus 07544 after 7 days by serial dilution method; conditions: Aspergillus fumigatus, 07544, 168 h
# [5] = tested on: Candida parapsilosis; assay: Antifungal activity against Candida parapsilosis ATCC 22019 after 24 hrs by serial dilution method; conditions: Lodderomyces parapsilosis, ATCC 22019, 24 h
# [6] = tested on: Nannizzia gypsea; assay: Antifungal activity against Microsporum gypseum Cmccfmza after 7 days by serial dilution method; conditions: 168 h
# [7] = tested on: Nakaseomyces glabratus; assay: Antifungal activity against Candida glabrata 537 after 24 hrs by serial dilution method; conditions: Nakaseomyces glabratus, 537, 24 h
# [8] = tested on: Candida tropicalis; assay: Antifungal activity against Candida tropicalis after 7 days by serial dilution method; conditions: 168 h
# [9] = tested on: Pichia kudriavzevii; assay: Antifungal activity against Candida krusei 0710397 after 7 days by serial dilution method; conditions: Pichia kudriavzevii, 0710397, 168 h
smiles,measurement,setting,value
CN1CCc2c(c3cc(Cl)ccc3n2CC#N)C1,MIC80,[1],> 64 µg/mL
same,MIC80,[2],> 64 µg/mL
same,MIC80,[3],64 µg/mL
same,MIC80,[4],> 64 µg/mL
same,MIC80,[5],> 64 µg/mL
same,MIC80,[6],64 µg/mL
same,MIC80,[7],> 64 µg/mL
CN1CCc2c(c3cc(Cl)ccc3n2C(=O)c2cccc(Cl)c2)C1,MIC80,[1],> 64 µg/mL
same,MIC80,[2],> 64 µg/mL
same,MIC80,[3],32 µg/mL
same,MIC80,[4],> 64 µg/mL
same,MIC80,[5],64 µg/mL
same,MIC80,[6],> 64 µg/mL
same,MIC80,[7],32 µg/mL
Cc1ccc2c3c(n(CCCOc4ccc(Cl)cc4)c2c1)CCN(C)C3,MIC80,[1],32 µg/mL
same,MIC80,[2],8 µg/mL
same,MIC80,[3],8 µg/mL
same,MIC80,[4],16 µg/mL
same,MIC80,[5],16 µg/mL
same,MIC80,[6],8 µg/mL
same,MIC80,[7],16 µg/mL
CN1CCc2c(c3cc(Cl)ccc3n2CCCOc2ccc(Cl)cc2)C1,MIC80,[1],64 µg/mL
same,MIC80,[2],> 64 µg/mL
same,MIC80,[3],8 µg/mL
same,MIC80,[4],> 64 µg/mL
same,MIC80,[5],16 µg/mL
same,MIC80,[6],16 µg/mL
same,MIC80,[7],16 µg/mL
CN1CCc2c(c3cc(Cl)ccc3n2Cc2ccc(Cl)cc2)C1,MIC80,[1],64 µg/mL
same,MIC80,[2],64 µg/mL
same,MIC80,[3],16 µg/mL
same,MIC80,[4],64 µg/mL
same,MIC80,[5],64 µg/mL
same,MIC80,[6],16 µg/mL
same,MIC80,[7],16 µg/mL
CCCN1CCc2c(c3cc(Cl)ccc3n2CCCOc2ccc(Cl)cc2)C1,MIC80,[1],> 64 µg/mL
same,MIC80,[2],> 64 µg/mL
same,MIC80,[3],16 µg/mL
same,MIC80,[4],> 64 µg/mL
same,MIC80,[5],64 µg/mL
same,MIC80,[6],16 µg/mL
same,MIC80,[7],16 µg/mL
Fc1ccc2c(c1)c1c(n2CCCOc2ccc(Br)cc2)CCNC1,MIC80,[1],8 µg/mL
same,MIC80,[2],8 µg/mL
same,MIC80,[3],4 µg/mL
same,MIC80,[5],64 µg/mL
same,MIC80,[6],2 µg/mL
same,MIC80,[8],16 µg/mL
same,MIC80,[9],4 µg/mL
CCN1CCc2c(c3cc(Cl)ccc3n2CCCOc2ccc(Cl)cc2)C1,MIC80,[1],64 µg/mL
same,MIC80,[2],> 64 µg/mL
same,MIC80,[3],16 µg/mL
same,MIC80,[4],> 64 µg/mL
same,MIC80,[5],64 µg/mL
same,MIC80,[6],32 µg/mL
same,MIC80,[7],32 µg/mL
Fc1ccc(OCCCCn2c3c(c4cc(F)ccc42)CNCC3)cc1,MIC80,[1],16 µg/mL
same,MIC80,[2],16 µg/mL
same,MIC80,[3],16 µg/mL
same,MIC80,[5],16 µg/mL
same,MIC80,[6],8 µg/mL
same,MIC80,[8],16 µg/mL
same,MIC80,[9],4 µg/mL
Cc1ccc(OCCCn2c3c(c4cc(F)ccc42)CNCC3)cc1,MIC80,[1],8 µg/mL
same,MIC80,[2],2 µg/mL
same,MIC80,[3],4 µg/mL
same,MIC80,[5],4 µg/mL
same,MIC80,[6],4 µg/mL
same,MIC80,[8],16 µg/mL
same,MIC80,[9],4 µg/mL
CN1CCc2c(c3cccc(Cl)c3n2CCCOc2ccc(Cl)cc2)C1,MIC80,[1],32 µg/mL
same,MIC80,[2],> 64 µg/mL
same,MIC80,[3],16 µg/mL
same,MIC80,[4],> 64 µg/mL
same,MIC80,[5],32 µg/mL
same,MIC80,[6],16 µg/mL
same,MIC80,[7],32 µg/mL
COc1ccc(OCCCn2c3c(c4cc(F)ccc42)CNCC3)cc1,MIC80,[1],8 µg/mL
same,MIC80,[2],8 µg/mL
same,MIC80,[3],8 µg/mL
same,MIC80,[5],> 64 µg/mL
same,MIC80,[6],4 µg/mL
same,MIC80,[8],> 64 µg/mL
same,MIC80,[9],16 µg/mL
Fc1ccc(OCCCCCn2c3c(c4cc(F)ccc42)CNCC3)cc1,MIC80,[1],16 µg/mL
same,MIC80,[2],32 µg/mL
same,MIC80,[3],16 µg/mL
same,MIC80,[5],16 µg/mL
same,MIC80,[6],8 µg/mL
same,MIC80,[8],4 µg/mL
same,MIC80,[9],4 µg/mL
Cc1ccc2c(c1)c1c(n2CCCOc2cccc(Br)c2)CCNC1,MIC80,[1],16 µg/mL
same,MIC80,[2],16 µg/mL
same,MIC80,[3],16 µg/mL
same,MIC80,[5],16 µg/mL
same,MIC80,[6],16 µg/mL
same,MIC80,[8],16 µg/mL
same,MIC80,[9],4 µg/mL
Clc1ccc2c(c1)c1c(n2CCCOc2cccc(Br)c2)CCNC1,MIC80,[1],8 µg/mL
same,MIC80,[2],16 µg/mL
same,MIC80,[3],4 µg/mL
same,MIC80,[5],16 µg/mL
same,MIC80,[6],16 µg/mL
same,MIC80,[8],16 µg/mL
same,MIC80,[9],4 µg/mL
Fc1ccc2c(c1)c1c(n2CCCOc2cccc(Br)c2)CCNC1,MIC80,[1],2 µg/mL
same,MIC80,[2],4 µg/mL
same,MIC80,[3],4 µg/mL
same,MIC80,[5],4 µg/mL
same,MIC80,[6],2 µg/mL
same,MIC80,[8],16 µg/mL
same,MIC80,[9],4 µg/mL
CN1CCc2c(c3cc(Cl)ccc3n2CC(O)c2ccccc2)C1 (stereo not given),MIC80,[1],> 64 µg/mL
same,MIC80,[2],> 64 µg/mL
same,MIC80,[3],32 µg/mL
same,MIC80,[4],> 64 µg/mL
same,MIC80,[5],64 µg/mL
same,MIC80,[6],32 µg/mL
same,MIC80,[7],32 µg/mL
CN1CCc2c(c3cc(Cl)ccc3n2Cc2ccccc2)C1,MIC80,[1],64 µg/mL
same,MIC80,[2],16 µg/mL
same,MIC80,[3],32 µg/mL
same,MIC80,[4],64 µg/mL
same,MIC80,[5],64 µg/mL
same,MIC80,[6],16 µg/mL
same,MIC80,[7],32 µg/mL
Fc1ccc2c(c1)c1c(n2CCCOc2ccccc2Cl)CCNC1,MIC80,[1],32 µg/mL
same,MIC80,[2],32 µg/mL
same,MIC80,[3],16 µg/mL
same,MIC80,[5],64 µg/mL
same,MIC80,[6],16 µg/mL
same,MIC80,[8],64 µg/mL
same,MIC80,[9],64 µg/mL
Fc1ccc2c(c1)c1c(n2CCCOc2cccc(F)c2F)CCNC1,MIC80,[1],32 µg/mL
same,MIC80,[2],32 µg/mL
same,MIC80,[3],32 µg/mL
same,MIC80,[5],4 µg/mL
same,MIC80,[6],16 µg/mL
same,MIC80,[8],16 µg/mL
same,MIC80,[9],4 µg/mL
